We go through one molecule from article PMC11015057 (ACS Infectious Diseases, 2024).

In brackets after ≈: the same amount, converted by molar mass. Read-outs that look alike come from different tables or passages of the source.

The subject of experiment [1] is E. coli TOP10 (GyrA^WT, ParC^WT). Nature of the experiment: microbe, parasite or virus in culture. The format is cell-based. The settings on record: Escherichia coli.
The test system of experiment [2] is uropathogens, including Escherichia coli. The note with it: cited from earlier work.
For experiment [3], the system named is E. coli TOP10-3 (GyrA^P35L, ParC^D79N). Nature of the experiment: MIC, antibacterial susceptibility (CLSI). The class given is cell-based. The settings on record: Escherichia coli.

For `O=c1ccc2ncc(=O)n3c2n1C[C@H]3CN1CCC(NCc2cc3c(cn2)OCCC3)CC1` [gepotidacin], the figures for the MIC in experiment [1] and in experiment [3] were 0.125 µg/mL (≈ 0.279 µM) and 16 µg/mL (≈ 35.7 µM), respectively. Moreover, the “clinical efficacy versus nitrofurantoin” value is recorded as “demonstrated statistically significant superiority versus nitrofurantoin” in experiment [2] (EAGLE-3 phase III trial); “demonstrated noninferiority to nitrofurantoin” in experiment [2] (phase III trials, patients with confirmed uncomplicated urinary tract infection and uropathogen susceptible to nitrofurantoin).
